The values below come from patent publication US6906170B1 (Yeda Research and Development Co. Ltd., priority 1998, dated 2005).

For test [1], the system named is human T cells. Kind of test: Induction of T cell adhesion to ECM, FN, LN and CO-IV. Format: cell-based. Particulars: T cells activated only with PMA; not shown.
The next test deals with HT-29 cells. Kind of test: Spontaneous IL-8 secretion from intestinal epithelial cells (ELISA). Format: cell-based, human. Also on record: IL-8 secretion Average O.D.: scale not given here. The following applies: peptide 1 nM, 24 h at 37° C. As to the method: Human colonic epithelial cell lines HT-29 (ATCC HTB38) and Caco-2 (ATCC […]) were obtained from the American Type Culture Collection (ATTC, Rockville, Md.). Cells were maintained in culture medium (DMEM supplemented with 10% cosmic calf serum (CSS), 2 mM glutamine, 100 U/ml penicillin, and 0.1 mg/ml streptomycin), at 37° C. and atmosphere of 5%, CO2. Cell viability was assessed using the standard MTT method.
Spontaneous or cytokine-induced secretion of IL-8 or IL-1β from intestinal epithelial cell. Test cells (HT-29 or Caco-2) were grown as confluent monolayers in 24-well tissue culture plates. […] When TNF-α was used, the peptides were added to the cells 1 hour prior to the addition of TNF-α. Following culture, the supernatants were harvested and analyzed for IL-8 or IL-1β secretion by ELISA using commercially available kits for IL-8 (Pharmingen) and IL-1β (Genzyme), according to the manufacturers' protocols.
The results in Table 1 show the O.D. readings of the ELISA assay (at 405 nm) as well as the percentage of inhibition of IL-8 secretion.
A general note: An ELISA detects its analyte on a solid surface through an enzyme-linked reagent.

Test [2] has as its system human T cells. Description: IL-2-induced T cell adhesion to fibronectin (FN). It is filed as cell-based. As to the method: (§1) T cell adhesion assays. Human T cells were purified from the peripheral blood of healthy donors, and T cell adhesion to immobilized protein substrates was examined as follows: Human leukocytes were isolated on a Ficoll gradient, washed, and incubated (2 h, 37° C., 7.5% CO2, humidified atmosphere) on petri dishes. The non-adherent cells were then collected and incubated (1 h, 37° C., 7.5% CO2, humidified atmosphere) on nylon wool columns (Novamed Ltd., Jerusalem, Israel). Unbound cells were eluted from the columns by extensive washings. The resulting cell population was always >92% T cells. […] After 4-6 h at 37° C., the wells were washed and ^51[Cr]-labeled T cells were added to the wells, 10^5 cells/100 μl of adhesion medium (RPMI-1640 supplemented with 0.1% BSA, 1% sodium pyruvate, 1% HEPES buffer). The microtiter plates containing the cells were incubated (30 min, 37° C.) in a humidified, 7.5% CO2 atmosphere, and then washed. The adherent cells were lysed, and the resulting supernatants were removed and analyzed in a γ-counter. For each experimental group, the results were expressed as the mean percentage ±SD of bound T cells from quadruplicate wells.
The effect of synthetic peptides, with putative amino acid compositions corresponding to fractions 2 and 8, on IL-2-induced T cell adhesion to FN. […] These three peptides were synthesized, and their effects on IL-2-induced T cell adhesion to FN were studied. […] The inhibitory dose-response curves of Ile-Val-Leu and […](SEQ ID NO:1) are similar to those of the HPLC fractions 2 and 8, respectively, from which they were derived. […]

The subject of test [3] is human T cells. Description: IL-2-induced T cell adhesion to LN, CO-IV and FN after peptide pre-treatment. It is filed as cell-based. The following applies: pre-exposed to peptide 10 pg/ml, then IL-2 10 U/ml. As to the method: The T cells were then seeded onto microtiter wells that were pre-coated (1 μg/well) with the various ECM glycoproteins. T cell adhesion was measured 30 min later.
as §1
Ile-Val-Leu, Arg-Met-Leu-Thr (SEQ ID NO:2) and […](SEQ ID NO:1) inhibit T cell adhesion to LN, CO-IV and FN. The next experiment was designed and performed to verify that the three IL-2-derived peptides indeed affect T cell interactions with ECM glycoproteins other than FN. […] The treated cells were then added to microtiter wells coated with CO-IV, LN, and FN.

For test [4], the system named is human T cells. Kind of test: T cell chemotaxis through FN-coated polycarbonate membranes. Format: cell-based. The following applies: peptide 1 pg/ml, FN-coated membrane. The protocol:
T cell migration towards the chemotactic sources was assessed after 2 hr. One experiment representative of four.
Chemotaxis assays. T cell chemotaxis was performed and analyzed as previously described (Ben-Baruch et al., 1997). Briefly, the migration of human T cells (0.5×10^6 cells in adhesion medium/well) was examined in a 48-well chemotaxis micro-chamber (Neuro-Probe Inc., Cabin John, M D). The two compartments of the micro-chambers were separated by a FN-coated polycarbonate filter (5 μm pore size; Osmonics Protein Products, Livemore, Calif.). […] After incubation (120 min, 37° C., in a humidified, 7.5% CO2 atmosphere); the filters were removed, fixed, and stained with a Diff-Quik staining kit Dade, Düdingen, Switzerland). The number of migrating T cells in five high-power fields (under 500× magnification; WILD Microscope, Heerbrugg, Switzerland) was evaluated. For each group, the results are expressed as the mean number of cells in one high-power field.
Immune cell migration is the outcome of a subtle biological equilibrium existing between adhesion and detachment events. Lymphocyte adhesion to the subendothelial ECM and subsequent migration are two active processes that can overlap, but are not mutually dependent events. Adhesion and migration may depend on the ability of the T cells to continuously integrate different pro- and anti-adhesive signals via their versatile receptors for ECM, chemokines, cytokines, and possibly, also antigenic moieties.

In test [5] the test system is human T cells. Kind of test: PHA- or IL-2-mediated T cell proliferation. The following applies: peptide 1 to 100 pg/ml. Format: cell-based. As to the method:
The in vitro bioassays (a) to (e) are well-known in the art. Thus, for example, assays (a), (b) and (e) may be carried out as described in the section Materials and Methods hereinafter. […] The IL-2-derived peptides or their derivatives are added to the culture wells (different amounts, 10 microliters) for the entire period of the assay. [^3H]-Thymidine is added to the microtiter 96 U-form well plates 18 h before harvesting the cultures on day 3 onto glass fiber filters and counted by liquid scintillation counter. Mean CPM and SD from quadriplicate culture are then presented.

Test [6] concerns human T cells. Kind of test: Secretion of TNF-α and IFN-γ from proliferating T cells. Format: cell-based. The following applies: peptide 1 to 100 pg/ml; not shown.

No end group written: not given here.

Consider `CCCCCCCCCCCCCC(=O)O[C@@H]1[C@@H](C)[C@@]2(O)[C@@H](C=C(CO)C[C@]3(O)C(=O)C(C)=C[C@@H]23)[C@@H]2C(C)(C)[C@]12OC(C)=O` [PMA], for which the “T cells adhered to immobilized ECM and ECM glycoproteins” value with human T cells [1] was 45±4.4%.
Consider “Arg-Met-Leu-Thr (RMLT; not fully specified (C-terminus); printed as Arg-Met-Leu-Thr) [pep3]”, for which the “IL-8 secretion Average O.D.” value in the test with HT-29 cells (ELISA O.D. at 405 nm, medium alone 488 ± 8.5, background 71 ± 1.4) is reported as 44 ± 0.7. In the test with HT-29 cells (spontaneous secretion), the “IL-8 secretion % inhibition” value is given as 107%. For the same compound, in the test with human T cells [2] (IL-2 10 U/ml), the “concentration giving maximum inhibition of IL-2-induced T cell adhesion to FN” value was “about 0.1 pg/ml” and the “concentration giving maximum inhibition of IL-2-induced T cell adhesion to FN (molar)” value was approximately 0.2 pM. Moreover, in the test on human T cells [2] (IL-2 10 U/ml, 30 min at 37° C., dose range), the “inhibition of adhesion of IL-2-activated T cells to FN” value is recorded as “inhibited, in a dose-dependent manner”. For the same compound, the “anti-adhesive effect after removal of peptide prior to IL-2 activation” value in the test with human T cells [2] (T cells pre-treated 1 pg/ml, washed, then IL-2 and FN-coated wells) is listed as “most of the anti-adhesive effects of the three peptides persevered”. Besides, in the test on human T cells [2] (among the three IL-2 peptides), the “relative potency as inhibitor of IL-2-induced T cell adhesion to FN” value is “most potent inhibitor”. For the same compound, in the test on human T cells [3], the “inhibition of T cell adhesion to CO-IV, LN and FN” value is “inhibit T cell adhesion to the three major cell-adhesive glycoproteins of the ECM”. Besides, in the test with human T cells [4] (IL-2 10 U/ml in lower compartment, p<0.01), the “inhibition of T cell migration toward IL-2” value is listed as approximately 90%. Besides, the “inhibition of T cell chemotaxis toward MIP-1β” value in the test on human T cells [4] (MIP-1β in lower compartment) worked out at 60%. In addition, the “interference with PHA- or IL-2-mediated proliferative responses” value in the test with human T cells [5] is on record as “none of them, at 1 to 100 pg/ml, interfered with either PHA- or IL-2-mediated proliferative responses”. The “inhibition of secretion of TNF-α and IFN-γ from proliferating T cells” value in the test with human T cells [6] is “nor did these peptides inhibit the secretion of TNF-α and IFN-γ”.
